Experimental data taken from ChEMBL document CHEMBL3046755, “Synthesis and Herbicidal Activity of N-Alkyl-N-(substituted benzyl)-4-halo-2-alkenamides” (1999).
Activity calls are given as the source filed them. The calls are words filed in the database; no cut-off is given here.

Key:
Echinochloa oryzicola [1] = experiment: Light dependent herbicidal activity against Echinochloa oryzicola seedlings assessed as inhibition of seedlings growth at 10 ppm measured after 6 days post compound application under greenhouse conditions at 25 +/- 2 degC with day light; type: functional, organism-based
Echinochloa oryzicola [2] = experiment: Herbicidal activity against Echinochloa oryzicola seedlings assessed as induction of seedlings damage measured after 3 weeks post compound application through paddy water; type: functional
Echinochloa oryzicola [3] = experiment: Light dependent herbicidal activity against Echinochloa oryzicola seedlings assessed as inhibition of seedlings growth at 10 ppm measured after 6 days post compound application under greenhouse conditions at 25 +/- 2 degC under dark conditions; type: functional, organism-based
Echinochloa oryzicola [4] = experiment: Potency index, ratio of ED90 for chlomethoxyfen to ED90 for test compound for herbicidal activity against Echinochloa oryzicola seedling; type: functional

COc1cc(Cl)ccc1CN(CC(C)C)C(=O)/C=C/C(C)Cl (racemic)
growth inhibition (GI) (Echinochloa oryzicola [1]): Active
ED90 (Echinochloa oryzicola [2]): 500 gAi/ha

COc1cc(CN(CC(C)C)C(=O)/C=C/C(C)Cl)ccc1C#N (racemic)
growth inhibition (GI) (Echinochloa oryzicola [1]): Active
ED90 (Echinochloa oryzicola [2]): 16 gAi/ha

CC(Cl)/C=C/C(=O)N(C)Cc1ccc(Cl)cc1 (racemic)
growth inhibition (GI) (Echinochloa oryzicola [1]): Active
ED90 (Echinochloa oryzicola [2]): 2000 gAi/ha

CC(Cl)/C=C/C(=O)N(Cc1ccccc1C#N)CC(C)C (racemic)
growth inhibition (GI) (Echinochloa oryzicola [1]): Active
ED90 (Echinochloa oryzicola [2]): 250 gAi/ha

CCOC(=O)c1ccc(CN(CC(C)C)C(=O)/C=C/C(C)Cl)cc1 (racemic)
growth inhibition (GI) (Echinochloa oryzicola [1]): Active
ED90 (Echinochloa oryzicola [2]): 1000 gAi/ha

CC(Cl)/C=C/C(=O)N(Cc1ccc(C(F)(F)F)cc1)CC(C)C (racemic)
growth inhibition (GI) (Echinochloa oryzicola [1]): Active
ED90 (Echinochloa oryzicola [2]): 31 gAi/ha

CC(Cl)/C=C/C(=O)N(Cc1cc(Cl)c(C#N)cc1Br)CC(C)C (racemic)
growth inhibition (GI) (Echinochloa oryzicola [1]): Active
ED90 (Echinochloa oryzicola [2]): <16 gAi/ha

CC(Cl)/C=C/C(=O)N(Cc1ccc(C(N)=O)cc1)CC(C)C (racemic)
growth inhibition (GI) (Echinochloa oryzicola [1]): Active
ED90 (Echinochloa oryzicola [2]): 500 gAi/ha

CCCOCCN(C(=O)CCl)c1c(CC)cccc1CC
growth inhibition (GI) (Echinochloa oryzicola [3]): Active

COc1ccc(Cl)cc1CN(CC(C)C)C(=O)/C=C/C(C)Cl (racemic)
growth inhibition (GI) (Echinochloa oryzicola [1]): Active
ED90 (Echinochloa oryzicola [2]): >1000 gAi/ha

CCC(Br)/C=C/C(=O)N(Cc1ccc(Cl)cc1)CC(C)C (racemic)
ED90 (Echinochloa oryzicola [2]): 125 gAi/ha

CCCCCCCCC(Br)/C=C/C(=O)N(Cc1ccc(Cl)cc1)CC(C)C (racemic)
ED90 (Echinochloa oryzicola [2]): >5000 gAi/ha

CC(I)/C=C/C(=O)N(Cc1ccc(Cl)cc1)CC(C)C (racemic)
growth inhibition (GI) (Echinochloa oryzicola [1]): Active
ED90 (Echinochloa oryzicola [2]): 250 gAi/ha

CC(Cl)/C=C/C(=O)N(Cc1ccc(Cl)cc1)C(C)(C)C (racemic)
growth inhibition (GI) (Echinochloa oryzicola [1]): Active
ED90 (Echinochloa oryzicola [2]): >5000 gAi/ha

CCCOc1ccc(Cl)c(CN(CC(C)C)C(=O)/C=C/C(C)Cl)c1 (racemic)
growth inhibition (GI) (Echinochloa oryzicola [1]): Active
ED90 (Echinochloa oryzicola [2]): 62 gAi/ha

CC(C)CN(Cc1ccc(Cl)cc1)C(=O)/C=C/C(Br)C(C)C (racemic)
ED90 (Echinochloa oryzicola [2]): 250 gAi/ha

CC(Cl)/C=C/C(=O)N(Cc1ccccc1)CC(C)C (stereo not given)
growth inhibition (GI) (Echinochloa oryzicola [1]): Active
ED90 (Echinochloa oryzicola [2]): 125 gAi/ha

CC(Cl)/C=C/C(=O)N(Cc1ccc(Cl)cc1Cl)CC(C)C (racemic)
growth inhibition (GI) (Echinochloa oryzicola [1]): Active
ED90 (Echinochloa oryzicola [2]): 125 gAi/ha

CC(Cl)/C=C/C(=O)N(Cc1ccc(Cl)cc1)C1CCCCCC1 (racemic)
growth inhibition (GI) (Echinochloa oryzicola [1]): Active
ED90 (Echinochloa oryzicola [2]): 62 gAi/ha

CC(Cl)/C=C/C(=O)N(Cc1ccc(C#N)cc1)CC(C)C (mixture of isomers)
growth inhibition (GI) (Echinochloa oryzicola [1]): Active
ED90 (Echinochloa oryzicola [2]): 16 gAi/ha

CC(O)/C=C/C(=O)N(Cc1ccc(Cl)cc1)CC(C)C (racemic)
growth inhibition (GI) (Echinochloa oryzicola [1]): Active
ED90 (Echinochloa oryzicola [2]): >5000 gAi/ha

CSc1ccc(CN(CC(C)C)C(=O)/C=C/C(C)Cl)cc1 (racemic)
growth inhibition (GI) (Echinochloa oryzicola [1]): Active
ED90 (Echinochloa oryzicola [2]): 250 gAi/ha

CC(Cl)/C=C/C(=O)N(Cc1ccc(Cl)c(OS(C)(=O)=O)c1)CC(C)C (racemic)
growth inhibition (GI) (Echinochloa oryzicola [1]): Active
ED90 (Echinochloa oryzicola [2]): 31 gAi/ha

CC(Br)/C=C/C(=O)N(Cc1ccc(Cl)cc1)CC(C)C (racemic)
growth inhibition (GI) (Echinochloa oryzicola [1]): Active
ED90 (Echinochloa oryzicola [2]): 125 gAi/ha

CC(=O)Nc1ccc(CN(CC(C)C)C(=O)/C=C/C(C)Cl)cc1 (racemic)
growth inhibition (GI) (Echinochloa oryzicola [1]): Active
ED90 (Echinochloa oryzicola [2]): >5000 gAi/ha

CC(Cl)/C=C/C(=O)N(Cc1ccc([N+](=O)[O-])cc1)CC(C)C (racemic)
growth inhibition (GI) (Echinochloa oryzicola [1]): Active
ED90 (Echinochloa oryzicola [2]): 250 gAi/ha

CCN(Cc1ccc(Cl)cc1)C(=O)/C=C/C(C)Cl (racemic)
growth inhibition (GI) (Echinochloa oryzicola [1]): Active
ED90 (Echinochloa oryzicola [2]): 250 gAi/ha

COc1cc(Oc2ccc(Cl)cc2Cl)ccc1[N+](=O)[O-] [CHLOMETHOXYFEN]
ED90 (Echinochloa oryzicola [2]): 250 gAi/ha

CCCC(Br)/C=C/C(=O)N(Cc1ccc(Cl)cc1)CC(C)C (racemic)
ED90 (Echinochloa oryzicola [2]): 250 gAi/ha

CC(Cl)/C=C/C(=O)N(Cc1ccc(S(C)(=O)=O)cc1)CC(C)C (racemic)
growth inhibition (GI) (Echinochloa oryzicola [1]): Active
ED90 (Echinochloa oryzicola [2]): >1000 gAi/ha

CC(Cl)/C=C/C(=O)N(Cc1ccc(Cl)cc1)C1CCCCC1 (racemic)
growth inhibition (GI) (Echinochloa oryzicola [1]): Active
ED90 (Echinochloa oryzicola [2]): 31 gAi/ha

CC(Cl)/C=C/C(=O)N(Cc1ccc(Cl)cc1)CC(C)C (racemic)
growth inhibition (GI) (Echinochloa oryzicola [1]): Active
ED90 (Echinochloa oryzicola [2]): 16 gAi/ha
Ratio (Echinochloa oryzicola [4]): 10

CCOc1cc(Oc2ccc(C(F)(F)F)cc2Cl)ccc1[N+](=O)[O-]
growth inhibition (GI) (Echinochloa oryzicola [1]): Active

CC(Cl)/C=C/C(=O)N(Cc1cccc(C#N)c1)CC(C)C (racemic)
growth inhibition (GI) (Echinochloa oryzicola [1]): Active
ED90 (Echinochloa oryzicola [2]): 500 gAi/ha

CCC(Cl)/C=C/C(=O)N(Cc1ccc(Cl)cc1)CC(C)C (racemic)
ED90 (Echinochloa oryzicola [2]): 16 gAi/ha

CC(Cl)/C=C/C(=O)N(Cc1ccc(C#N)cc1Cl)CC(C)C (mixture of isomers)
growth inhibition (GI) (Echinochloa oryzicola [1]): Active
ED90 (Echinochloa oryzicola [2]): <16 gAi/ha

CCCC(Cl)/C=C/C(=O)N(Cc1ccc(Cl)cc1)CC(C)C (racemic)
ED90 (Echinochloa oryzicola [2]): 500 gAi/ha

CCCN(Cc1ccc(Cl)cc1)C(=O)/C=C/C(C)Cl (racemic)
growth inhibition (GI) (Echinochloa oryzicola [1]): Active
ED90 (Echinochloa oryzicola [2]): 125 gAi/ha

CCCCN(Cc1ccc(Cl)cc1)C(=O)/C=C/C(C)Cl (racemic)
growth inhibition (GI) (Echinochloa oryzicola [1]): Active
ED90 (Echinochloa oryzicola [2]): 31 gAi/ha

CC(Cl)/C=C/C(=O)N(Cc1cc(OS(C)(=O)=O)ccc1Cl)CC(C)C (racemic)
growth inhibition (GI) (Echinochloa oryzicola [1]): Active
ED90 (Echinochloa oryzicola [2]): 31 gAi/ha

CC(Cl)/C=C/C(=O)N(Cc1ccc(Cl)c([N+](=O)[O-])c1)CC(C)C (racemic)
growth inhibition (GI) (Echinochloa oryzicola [1]): Active
ED90 (Echinochloa oryzicola [2]): 31 gAi/ha

CC(Cl)/C=C/C(=O)N(Cc1ccc(Cl)cc1)C(C)C (racemic)
growth inhibition (GI) (Echinochloa oryzicola [1]): Active
ED90 (Echinochloa oryzicola [2]): 250 gAi/ha

CC(Cl)/C=C/C(=O)N(Cc1ccc(C(=O)O)cc1)CC(C)C (racemic)
growth inhibition (GI) (Echinochloa oryzicola [1]): Active
ED90 (Echinochloa oryzicola [2]): >5000 gAi/ha

COc1ccc(Cl)c(CN(CC(C)C)C(=O)/C=C/C(C)Cl)c1 (racemic)
growth inhibition (GI) (Echinochloa oryzicola [1]): Active
ED90 (Echinochloa oryzicola [2]): 31 gAi/ha

CC(Cl)/C=C/C(=O)N(Cc1ccc(C=O)cc1)CC(C)C (racemic)
growth inhibition (GI) (Echinochloa oryzicola [1]): Active
ED90 (Echinochloa oryzicola [2]): 1000 gAi/ha

CC(C)CN(Cc1ccc(Cl)cc1)C(=O)/C=C/CBr
ED90 (Echinochloa oryzicola [2]): >4000 gAi/ha

C=CCN(Cc1ccc(Cl)cc1)C(=O)/C=C/C(C)Cl (racemic)
growth inhibition (GI) (Echinochloa oryzicola [1]): Active
ED90 (Echinochloa oryzicola [2]): 375 gAi/ha

CCCCCCCCN(Cc1ccc(Cl)cc1)C(=O)/C=C/C(C)Cl (racemic)
growth inhibition (GI) (Echinochloa oryzicola [1]): Active
ED90 (Echinochloa oryzicola [2]): >5000 gAi/ha

CC(Cl)/C=C/C(=O)N(CCC(C)C)Cc1ccc(Cl)cc1 (racemic)
growth inhibition (GI) (Echinochloa oryzicola [1]): Active
ED90 (Echinochloa oryzicola [2]): <16 gAi/ha

CCCCC(Br)/C=C/C(=O)N(Cc1ccc(Cl)cc1)CC(C)C (racemic)
ED90 (Echinochloa oryzicola [2]): 2500 gAi/ha

COc1cc(CN(CC(C)C)C(=O)/C=C/C(C)Cl)ccc1Cl (racemic)
growth inhibition (GI) (Echinochloa oryzicola [1]): Active
ED90 (Echinochloa oryzicola [2]): 16 gAi/ha

CCOC(=O)c1cc(CN(CC(C)C)C(=O)/C=C/C(C)Cl)ccc1Cl (racemic)
growth inhibition (GI) (Echinochloa oryzicola [1]): Active
ED90 (Echinochloa oryzicola [2]): <16 gAi/ha

CC(Cl)/C=C/C(=O)N(Cc1cc(Cl)ccc1OS(C)(=O)=O)CC(C)C (racemic)
growth inhibition (GI) (Echinochloa oryzicola [1]): Active
ED90 (Echinochloa oryzicola [2]): >1000 gAi/ha

CCCCCCC(Br)/C=C/C(=O)N(Cc1ccc(Cl)cc1)CC(C)C (racemic)
ED90 (Echinochloa oryzicola [2]): 5000 gAi/ha

Cc1ccc(CN(CC(C)C)C(=O)/C=C/C(C)Cl)cc1 (racemic)
growth inhibition (GI) (Echinochloa oryzicola [1]): Active
ED90 (Echinochloa oryzicola [2]): 125 gAi/ha

CC(Cl)/C=C/C(=O)N(Cc1ccc(Cl)cc1OS(C)(=O)=O)CC(C)C (racemic)
growth inhibition (GI) (Echinochloa oryzicola [1]): Active
ED90 (Echinochloa oryzicola [2]): 500 gAi/ha

CCCOc1cc(CN(CC(C)C)C(=O)/C=C/C(C)Cl)ccc1Cl (racemic)
growth inhibition (GI) (Echinochloa oryzicola [1]): Active
ED90 (Echinochloa oryzicola [2]): 31 gAi/ha

CCC(C)N(Cc1ccc(Cl)cc1)C(=O)/C=C/C(C)Cl (racemic)
growth inhibition (GI) (Echinochloa oryzicola [1]): Active
ED90 (Echinochloa oryzicola [2]): 375 gAi/ha
